From article PMC9944328 (Nature Communications, 2023)
“And” between values parts separate entries of the source, which are not always exact repeats. Equal values may be shown once.

Target: SSTR2 (Homo sapiens, UniProt P30874)
Experiment: NanoBiT β-arrestin 1 recruitment assay, HEK293 (SSTR2 wild-type);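 for Bottom (best-fit): percent of maximal wild-type response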;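 for Span (best-fit): percent of maximal wild-type response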;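 for Top (best-fit): percent of maximal wild-type response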
Type: cell-based
Set-up: Human full-length SSTR wild-type and mutant vectors were C-terminally fused; expressed in transfected cells; host or cells: HEK293
Conditions: for Bottom (β-arrestin1 recruitment) / LogEC50 (β-arrestin1 recruitment) / Span (β-arrestin1 recruitment) / Top (β-arrestin1 recruitment): best-fit
Description: The NanoBiT β-arrestin 1 recruitment assays were carried out according to the method described previously. […] Human full-length SSTR wild-type and mutant vectors were C-terminally fused with a 15-amino acid flexible linker and the small fragment (SmBiT). HEK293 cells were seeded into six-well microplates at a density of 1.0 × 10^6 cells/well and cultured for 24 h at 37 °C with 5% CO2. After that, cells were co-transfected with pcDNA3.1+ vectors encoding SSTR wild-type or mutants and human β-arrestin 1. After transfecting for 24 h, the transfected cells were suspended and seeded into white 96-well plates, and then cultured at 37 °C overnight. After that the medium in each well was exchanged for 90 μl of 0.01% bovine serum albumin containing 20 μl of 50 μM coelenterazine h (Carbosynth) diluted in the HBSS assay buffer and incubated for 40 min at room temperature. Then, ligands diluted in the assay buffer was added to each well and the luminescence intensity was measured using the Synergy H1 microplate reader and detected at room temperature in a time period. All data presented are means of at least three independent experiments.

SSTR2, sequence (P30874 whole entry): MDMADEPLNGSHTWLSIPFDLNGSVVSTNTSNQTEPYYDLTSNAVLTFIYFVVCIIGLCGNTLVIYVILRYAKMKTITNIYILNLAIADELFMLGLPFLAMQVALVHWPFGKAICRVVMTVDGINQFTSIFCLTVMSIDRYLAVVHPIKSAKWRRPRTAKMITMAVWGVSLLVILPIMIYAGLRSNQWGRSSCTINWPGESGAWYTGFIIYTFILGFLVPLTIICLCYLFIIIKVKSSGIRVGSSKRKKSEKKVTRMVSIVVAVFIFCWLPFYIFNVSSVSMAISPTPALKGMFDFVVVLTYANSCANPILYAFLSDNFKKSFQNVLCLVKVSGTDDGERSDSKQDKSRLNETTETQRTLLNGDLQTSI
SSTR2, sequence (P49407 whole entry partner): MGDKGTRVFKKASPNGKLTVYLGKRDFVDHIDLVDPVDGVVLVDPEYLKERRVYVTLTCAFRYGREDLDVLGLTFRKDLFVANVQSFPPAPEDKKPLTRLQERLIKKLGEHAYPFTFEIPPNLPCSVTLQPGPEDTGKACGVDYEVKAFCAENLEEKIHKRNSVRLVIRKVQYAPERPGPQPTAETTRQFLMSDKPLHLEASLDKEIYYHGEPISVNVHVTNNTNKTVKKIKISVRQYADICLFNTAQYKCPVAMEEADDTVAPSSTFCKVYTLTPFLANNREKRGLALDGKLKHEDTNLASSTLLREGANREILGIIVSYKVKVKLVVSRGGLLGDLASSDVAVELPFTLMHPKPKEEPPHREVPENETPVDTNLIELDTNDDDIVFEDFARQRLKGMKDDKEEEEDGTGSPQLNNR

N#Cc1cccc(-c2ccc3ncc(-c4cc(F)cc(F)c4)c(N4CCC(N)CC4)c3c2)c1O [paltusotine]
Span (best-fit) (WT-1 (D122A set)): 106.9
Top (best-fit) (WT-1 (D122A set)): 107.9
Bottom (best-fit) (WT-1 (F127A set)): -9.341
LogEC50 (best-fit) (WT-1 (F127A set)): -6.513
Span (best-fit) (WT-1 (F127A set)): 113.7
Top (best-fit) (WT-1 (F127A set)): 104.3
Bottom (best-fit) (WT-1 (I130A set)): -0.4941
LogEC50 (best-fit) (WT-1 (I130A set)): -6.535
Span (best-fit) (WT-1 (I130A set)): 106
Top (best-fit) (WT-1 (I130A set)): 105.5
Span (best-fit) (WT-1 (Q102A set)): 106.9
Bottom (best-fit) (WT-1 (Q126A set)): 0.5008
LogEC50 (best-fit) (WT-1 (Q126A set)): -6.514
Span (best-fit) (WT-1 (Q126A set)): 104.2
Top (best-fit) (WT-1 (Q126A set)): 104.7
Bottom (best-fit) (WT-1 (V103A set)): 0.5008
LogEC50 (best-fit) (WT-1 (V103A set)): -6.514
Span (best-fit) (WT-1 (V103A set)): 104.2
Top (best-fit) (WT-1 (V103A set)): 104.7
Bottom (best-fit) (WT-2 (D122A set)): 3.261
LogEC50 (best-fit) (WT-2 (D122A set)): -6.399
Span (best-fit) (WT-2 (D122A set)): 103.6
Top (best-fit) (WT-2 (D122A set)): 106.9
Bottom (best-fit) (WT-2 (F127A set)): -1.812
LogEC50 (best-fit) (WT-2 (F127A set)): -6.566
Span (best-fit) (WT-2 (F127A set)): 107.5
Top (best-fit) (WT-2 (F127A set)): 105.7
Bottom (best-fit) (WT-2 (I130A set)): -1.026
LogEC50 (best-fit) (WT-2 (I130A set)): -6.849
Span (best-fit) (WT-2 (I130A set)): 102.6
Top (best-fit) (WT-2 (I130A set)): 101.5
Bottom (best-fit) (WT-2 (Q126A set)): 0.9805
LogEC50 (best-fit) (WT-2 (Q126A set)): -6.342
Span (best-fit) (WT-2 (Q126A set)): 106.4
Top (best-fit) (WT-2 (Q126A set)): 107.4
Bottom (best-fit) (WT-2 (V103A set)): 0.4349
LogEC50 (best-fit) (WT-2 (V103A set)): -6.531
Span (best-fit) (WT-2 (V103A set)): 102.7
Top (best-fit) (WT-2 (V103A set)): 103.1
Bottom (best-fit) (WT-3 (D122A set)): 0.9805
LogEC50 (best-fit) (WT-3 (D122A set)): -6.342
Span (best-fit) (WT-3 (D122A set)): 106.4
Top (best-fit) (WT-3 (D122A set)): 107.4
Bottom (best-fit) (WT-3 (F127A set)): -0.4941
LogEC50 (best-fit) (WT-3 (F127A set)): -6.535
Span (best-fit) (WT-3 (F127A set)): 106
Top (best-fit) (WT-3 (F127A set)): 105.5
Bottom (best-fit) (WT-3 (I130A set)): -1.282
LogEC50 (best-fit) (WT-3 (I130A set)): -6.883
Span (best-fit) (WT-3 (I130A set)): 103.9
Top (best-fit) (WT-3 (I130A set)): 102.6
Span (best-fit) (WT-3 (Q102A set)): 106.4
Bottom (best-fit) (WT-3 (Q126A set)): 0.9805
LogEC50 (best-fit) (WT-3 (Q126A set)): -6.342
Span (best-fit) (WT-3 (Q126A set)): 106.4
Top (best-fit) (WT-3 (Q126A set)): 107.4
Bottom (best-fit) (WT-3 (V103A set)): 0.5008
LogEC50 (best-fit) (WT-3 (V103A set)): -6.514
Span (best-fit) (WT-3 (V103A set)): 104.2
Top (best-fit) (WT-3 (V103A set)): 104.7
Bottom (β-arrestin1 recruitment) (WT-1): 1.007 and 0.9805 and 0.9636
LogEC50 (β-arrestin1 recruitment) (WT-1): -6.376 and -6.342 and -6.276
Span (β-arrestin1 recruitment) (WT-1): 106.9 and 106.4 and 106.5
Top (β-arrestin1 recruitment) (WT-1): 107.9 and 107.4 and 107.5
Bottom (β-arrestin1 recruitment) (WT-2): 0.9805 and 1.007 and 0.8106
LogEC50 (β-arrestin1 recruitment) (WT-2): -6.342 and -6.376 and -6.212
Span (β-arrestin1 recruitment) (WT-2): 106.4 and 106.9 and 106.8
Top (β-arrestin1 recruitment) (WT-2): 107.4 and 107.9 and 107.6
LogEC50 (β-arrestin1 recruitment) (WT-3): -6.342 and -6.376 and -6.269
Span (β-arrestin1 recruitment) (WT-3): 106.4 and 106.9 and 104.9
Top (β-arrestin1 recruitment) (WT-3): 107.4 and 107.9 and 107.1
Fold of WT (β-arrestin recruitment EC50, SSTR2 WT): 1
